Experimental data from patent US20230255953A1, “USE OF ROLUPERIDONE IN PREVENTING RELAPSE IN SCHIZOPHRENIA PATIENTS” (Minerva Neurosciences, Inc., priority 2022, published 2023).

System: patients with negative symptoms of schizophrenia
Test: Integrated analysis of Studies #1 and #2 (pooled ITT): PANSS-derived scores (NSFS, total, positive and negative subscales), DB, OL and whole study
Type: in vivo, human
Set-up: key to NSFS Score change from Baseline, Median: change from Baseline in PANSS NSFS points; higher score = more severe
Protocol: The primary integrated analysis of the efficacy of Roluperidone compared with placebo for the treatment of negative symptoms of schizophrenia is based on the change from Baseline in the PANSS Marder's negative symptoms factor score (in this document referred to as NSFS) to Week 12. Efficacy is also supported by the analysis of change from Baseline in the PSP Total score and the CGI-S to Week 12.
The PANSS was assessed at the time points described in Table 4.
The PANSS-derived endpoints used in these studies and the integrated analyses are described in Table 5A and a summary of the individual PANSS items used by physicians and clinicians to measure the severity of the symptoms in a schizophrenia patient is provided in Table 5B. The scale is divided into three parts, a positive scale, which provides a “PANSS positive subscore”, a negative scale, which provides a “PANSS negative subscore”, and general psychopathology scale. The sum of these three parts provides a PANSS total score, which ranges from 30 to 210 (where higher scores indicate more severe symptoms). (See Kay, S. R., et al. “The positive and negative syndrome scale (PANSS) for schizophrenia,” Schizophr Bulletin, 13(2), 261-276 (1987) and Gopal, S., et al. “Improvement of Negative Symptoms in Schizophrenia with Paliperidone Palmitate 1-Month and 3-Month Long-Acting Injectables: Results from a Phase 3 Non-Inferiority Study” Neuropsychiatric Disease and Treatment, 681-690, DOI: 10.2147/NDT.5226296, both of which are incorporated by reference.)
The Efficacy data from Study Nos. 1 and 2 were pooled. The majority of patients in the pooled ITT population completed the DB period (502 patients overall, 66.3%), with similar rates in each treatment group (placebo: 69.8%, 32 mg Roluperidone: 65.3%, and 64 mg Roluperidone: 63.8%) (Table 12). The majority (62.7%) of those who completed the DB period entered the OL period. The most common reason for discontinuation during the DB period among patients overall was withdrawal of consent (15.6%), followed by adverse events (7.3%) and lack of efficacy (5.4%) (Table 12). […] Approximately twice as many patients in the Roluperidone groups (32 mg: 8.5%; 64 mg: 9.1%) discontinued due to adverse events compared with patients in the placebo group (4.3%). More patients in the placebo group discontinued due to lack of efficacy (6.7%) than in the Roluperidone groups (32 mg: 4.4%; 64 mg: 5.1%). The low number of patients who discontinued due to lack of efficacy or withdrawal of consent probably reflects a low level of worsening of positive symptoms.
The integrated analysis supporting the efficacy of Roluperidone as a treatment for the negative symptoms of schizophrenia in adults is presented below.

[1] = Placebo in DB to Roluperidone 32 mg in OL, pooled ITT
[2] = Placebo in DB to Roluperidone 64 mg in OL, pooled ITT
[3] = Placebo in DB to Roluperidone in OL, Total, pooled ITT
[4] = Roluperidone Total, Week 2, DB, pooled ITT
[5] = Roluperidone Total, Week 2, pooled ITT

## 1H-Isoindol-1-one,2-[ [1-[2-(4-fluorophenyl)-2-oxoethyl]-4-piperidinyl]methyl]-2,3-dihydro-, hydrochloride, hydrate (1:1:2) [Roluperidone]
64 mg, Week 12, pooled
  Patients with moderate improvement in NSFS (magnitude of change 6-8): 19%
  Patients with moderate or high improvement in NSFS, total: 32%
64 mg, Week 12, pooled ITT
  NSFS, LS mean decrease from Baseline compared with placebo: −3.9
  PANSS Positive Subscale Score change from Baseline, LS mean (SE): −0.2 (0.21)
  PANSS Positive Subscale Score change from Baseline, Mean (SD): −0.5 (2.88)
  PANSS Positive Subscale Score change from Baseline, Median: 0.0
  PANSS Positive Subscale Score, Difference (95% CI) in LS mean (vs placebo): −0.4
  PANSS negative subscale score, LS mean change from Baseline compared with placebo: −1.3
  PANSS positive subscale score, LS mean change from Baseline compared with placebo: −0.4
  PANSS total score, LS mean change from Baseline compared with placebo: −2.8
64 mg, responder analysis
  Patients with 20% Reduction in NSFS at Week 12, percent: 39%
  Patients with 20% Reduction in PANSS Total Score at Week 12, percent: 19%
64 mg, responder analysis, n/N
  Number of Patients with 20% Reduction in PANSS Total Score at Week 12: 34/176
  Number of Patients with 20% reduction in NSFS at Week 12: 68/176
[1]
  NSFS Change from Active BL to Week 24, Mean (SD): −2.1 (2.56)
  NSFS Change from Active BL to Week 24, Median: −2.0
  NSFS Change from Active BL to Week 52, Mean (SD): −4.5 (3.60)
  NSFS Change from Active BL to Week 52, Median: −4.0
  NSFS Change from Active BL to Week 54, Mean (SD): −4.7 (3.60)
  NSFS Change from Active BL to Week 54, Median: −4.0
  NSFS Change from Open-label BL to Week 24, Mean (SD): −2.1 (2.56)
  NSFS Change from Open-label BL to Week 24, Median: −2.0
  NSFS Change from Open-label BL to Week 52, Mean (SD): −4.5 (3.60)
  NSFS Change from Open-label BL to Week 52, Median: −4.0
  NSFS Change from Open-label BL to Week 54, Mean (SD): −4.7 (3.60)
  NSFS Change from Open-label BL to Week 54, Median: −4.0
  NSFS Change from Study BL to Week 24, Mean (SD): −5.3 (3.72)
  NSFS Change from Study BL to Week 24, Median: −5.0
  NSFS Change from Study BL to Week 52, Mean (SD): −7.9 (3.69)
  NSFS Change from Study BL to Week 52, Median: −8.0
  NSFS Change from Study BL to Week 54, Mean (SD): −7.9 (4.29)
  NSFS Change from Study BL to Week 54, Median: −7.0
[2]
  NSFS Change from Active BL to Week 24, Mean (SD): −1.8 (3.55)
  NSFS Change from Active BL to Week 24, Median: −2.0
  NSFS Change from Active BL to Week 52, Mean (SD): −4.9 (4.72)
  NSFS Change from Active BL to Week 52, Median: −6.0
  NSFS Change from Active BL to Week 54, Mean (SD): −4.2 (4.78)
  NSFS Change from Active BL to Week 54, Median: −5.0
  NSFS Change from Open-label BL to Week 24, Mean (SD): −1.8 (3.55)
  NSFS Change from Open-label BL to Week 24, Median: −2.0
  NSFS Change from Open-label BL to Week 52, Mean (SD): −4.9 (4.72)
  NSFS Change from Open-label BL to Week 52, Median: −6.0
  NSFS Change from Open-label BL to Week 54, Mean (SD): −4.2 (4.78)
  NSFS Change from Open-label BL to Week 54, Median: −5.0
  NSFS Change from Study BL to Week 24, Mean (SD): −4.2 (3.38)
  NSFS Change from Study BL to Week 24, Median: −4.0
  NSFS Change from Study BL to Week 52, Mean (SD): −7.0 (3.76)
  NSFS Change from Study BL to Week 52, Median: −7.5
  NSFS Change from Study BL to Week 54, Mean (SD): −6.6 (4.15)
  NSFS Change from Study BL to Week 54, Median: −7.0
[3]
  NSFS Change from Active BL to Week 24, Mean (SD): −1.9 (3.06)
  NSFS Change from Active BL to Week 24, Median: −2.0
  NSFS Change from Active BL to Week 52, Mean (SD): −4.7 (4.17)
  NSFS Change from Active BL to Week 52, Median: −5.0
  NSFS Change from Active BL to Week 54, Mean (SD): −4.4 (4.18)
  NSFS Change from Active BL to Week 54, Median: −5.0
  NSFS Change from Open-label BL to Week 24, Mean (SD): −1.9 (3.06)
  NSFS Change from Open-label BL to Week 24, Median: −2.0
  NSFS Change from Open-label BL to Week 52, Mean (SD): −4.7 (4.17)
  NSFS Change from Open-label BL to Week 52, Median: −5.0
  NSFS Change from Open-label BL to Week 54, Mean (SD): −4.4 (4.18)
  NSFS Change from Open-label BL to Week 54, Median: −5.0
  NSFS Change from Study BL to Week 24, Mean (SD): −4.8 (3.60)
  NSFS Change from Study BL to Week 24, Median: −4.0
  NSFS Change from Study BL to Week 52, Mean (SD): −7.5 (3.72)
  NSFS Change from Study BL to Week 52, Median: −8.0
  NSFS Change from Study BL to Week 54, Mean (SD): −7.3 (4.25)
  NSFS Change from Study BL to Week 54, Median: −7.0
[4]
  NSFS Score change from Baseline, Mean (SD): −1.3 (2.25)
  NSFS Score change from Baseline, Median: −1.0
  PANSS Negative Subscale Score change from Baseline, Mean (SD): −1.3 (2.20)
  PANSS Negative Subscale Score change from Baseline, Median: −1.0
  PANSS Total Score change from Baseline, Mean (SD): −2.0 (6.89)
  PANSS Total Score change from Baseline, Median: −2.0
[5]
  PANSS Positive Subscale Score change from Baseline, Mean (SD): 0.1 (2.78)
  PANSS Positive Subscale Score change from Baseline, Median: 0.0
Roluperidone Total, Week 4, DB, pooled ITT
  NSFS Score change from Baseline, Mean (SD): −2.4 (2.64)
